PubChem BioAssay AID256 (DTP/NCI, 2004)
Values joined by “and” are separate entries in the source; they are usually repeats but may differ in a detail not shown here. Equal values may be shown once. Inconclusive results and toxic doses are left out.

Test system: CD2F1 mice, L1210 leukemia ip, survival T/C
Test: NCI In Vivo Anticancer Drug Screen. Data for tumor model L1210 Leukemia (intraperitoneal) in CD2F1 (CDF1) mice
Conditions: endpoint: mean survival time, higher = longer survival
Summary of the method: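 Vehicle-treated tumor-bearing mice served as controls (C) for compound-treated mice (T). Reported figure is T divided by C.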

[1] = dose: 12.5 mg/kg/injection, schedule: Q01DX009 (ip), vehicle: saline with Tween-80
[2] = dose: 25.0 mg/kg/injection, schedule: Q01DX009 (ip), vehicle: saline with Tween-80
[3] = dose: 50.0 mg/kg/injection, schedule: Q01DX009 (ip), vehicle: saline with Tween-80
[4] = dose: 100.0 mg/kg/injection, schedule: Q01DX009 (ip), vehicle: saline with Tween-80
[5] = dose: 100.0 mg/kg/injection, schedule: Q04DX002 (ip), vehicle: saline with Tween-80
[6] = dose: 100.0 mg/kg/injection, schedule: Q04DX003 (ip), vehicle: saline with Tween-80
[7] = dose: 200.0 mg/kg/injection, schedule: Q01DX009 (ip), vehicle: saline with Tween-80
[8] = dose: 200.0 mg/kg/injection, schedule: Q04DX002 (ip), vehicle: saline with Tween-80
[9] = dose: 200.0 mg/kg/injection, schedule: Q04DX003 (ip), vehicle: saline with Tween-80
[10] = dose: 400.0 mg/kg/injection, schedule: Q04DX002 (ip), vehicle: saline with Tween-80
[11] = dose: 100.0 mg/kg/injection, schedule: Q01DX009 (ip), vehicle: saline
[12] = dose: 200.0 mg/kg/injection, schedule: Q01DX009 (ip), vehicle: saline
[13] = dose: 400.0 mg/kg/injection, schedule: Q01DX009 (ip), vehicle: saline with Tween-80

SMILES: CCC(c1ccc(OC(=O)Cc2ccc(N(CCCl)CCCl)cc2)cc1)C(CC)c1ccc(OC(=O)Cc2ccc(N(CCCl)CCCl)cc2)cc1 (centres undefined)
- T/C (dose: 3.1 mg/kg/injection, schedule: Q03HX016 (ip), vehicle: saline with Tween-80): 94 % of control
- T/C (dose: 3.1 mg/kg/injection, schedule: Q03HX024 (ip), vehicle: saline with Tween-80): 100 % of control
- T/C (dose: 6.3 mg/kg/injection, schedule: Q03HX008 (ip), vehicle: saline with Tween-80): 88 % of control
- T/C (dose: 6.3 mg/kg/injection, schedule: Q03HX024 (ip), vehicle: saline with Tween-80): 91 % of control
- T/C [1]: 88 % of control
- T/C (dose: 12.5 mg/kg/injection, schedule: Q01DX009 (sc), vehicle: saline with Tween-80): 100 % of control
- T/C (dose: 12.5 mg/kg/injection, schedule: Q03HX024 (ip), vehicle: saline with Tween-80): 88 % of control
- T/C (dose: 25.0 mg/kg/injection, schedule: Q01DX001 (ip), vehicle: saline with Tween-80): 94 % of control
- T/C (dose: 25.0 mg/kg/injection, schedule: Q01DX001 (oral), vehicle: saline with Tween-80): 103 % of control
- T/C (dose: 25.0 mg/kg/injection, schedule: Q01DX001 (sc), vehicle: saline with Tween-80): 91 % of control
- T/C [2]: 90 % of control
- T/C (dose: 25.0 mg/kg/injection, schedule: Q01DX009 (oral), vehicle: saline with Tween-80): 114 % of control
- T/C (dose: 25.0 mg/kg/injection, schedule: Q01DX009 (sc), vehicle: saline with Tween-80): 100 % of control
- T/C (dose: 25.0 mg/kg/injection, schedule: Q03HX024 (ip), vehicle: saline with Tween-80): 88 % of control
- T/C (dose: 25.0 mg/kg/injection, schedule: Q04DX003 (ip), vehicle: saline with Tween-80): 91 % of control
- T/C (dose: 25.0 mg/kg/injection, schedule: Q08DX002 (ip), vehicle: saline with Tween-80): 88 % of control
- T/C (dose: 50.0 mg/kg/injection, schedule: Q01DX001 (oral), vehicle: saline with Tween-80): 105 % of control
- T/C (dose: 50.0 mg/kg/injection, schedule: Q01DX001 (sc), vehicle: saline with Tween-80): 88 % of control
- T/C [3]: 88 % of control
- T/C (dose: 50.0 mg/kg/injection, schedule: Q01DX009 (oral), vehicle: saline with Tween-80): 94 % of control
- T/C (dose: 50.0 mg/kg/injection, schedule: Q01DX009 (sc), vehicle: saline with Tween-80): 97 % of control
- T/C (dose: 50.0 mg/kg/injection, schedule: Q03HX016 (ip), vehicle: saline with Tween-80): 88 % of control
- T/C (dose: 50.0 mg/kg/injection, schedule: Q03HX024 (ip), vehicle: saline with Tween-80): 88 % of control
- T/C (dose: 50.0 mg/kg/injection, schedule: Q04DX003 (ip), vehicle: saline with Tween-80): 88 % of control
- T/C (dose: 50.0 mg/kg/injection, schedule: Q08DX002 (ip), vehicle: saline with Tween-80): 90 % of control
- T/C (dose: 80.0 mg/kg/injection, schedule: Q01DX005 (ip), vehicle: saline with Tween-80): 96 % of control
- T/C (dose: 80.0 mg/kg/injection, schedule: Q01DX009 (ip), vehicle: saline with Tween-80): 93 % of control
- T/C (dose: 100.0 mg/kg/injection, schedule: Q01DX001 (ip), vehicle: saline with Tween-80): 90 % of control and 95 % of control
- T/C (dose: 100.0 mg/kg/injection, schedule: Q01DX001 (oral), vehicle: saline with Tween-80): 105 % of control
- T/C (dose: 100.0 mg/kg/injection, schedule: Q01DX001 (sc), vehicle: saline with Tween-80): 102 % of control
- T/C [4]: 90 % of control
- T/C (dose: 100.0 mg/kg/injection, schedule: Q01DX009 (oral), vehicle: saline with Tween-80): 101 % of control
- T/C (dose: 100.0 mg/kg/injection, schedule: Q01DX009 (sc), vehicle: saline with Tween-80): 100 % of control
- T/C [5]: 101 % of control
- T/C [6]: 90 % of control
- T/C (dose: 100.0 mg/kg/injection, schedule: Q08DX002 (ip), vehicle: saline with Tween-80): 90 % of control
- T/C (dose: 120.0 mg/kg/injection, schedule: Q01DX005 (ip), vehicle: saline with Tween-80): 96 % of control
- T/C (dose: 120.0 mg/kg/injection, schedule: Q01DX009 (ip), vehicle: saline with Tween-80): 93 % of control
- T/C (dose: 180.0 mg/kg/injection, schedule: Q01DX005 (ip), vehicle: saline with Tween-80): 92 % of control
- T/C (dose: 180.0 mg/kg/injection, schedule: Q01DX009 (ip), vehicle: saline with Tween-80): 92 % of control
- T/C (dose: 200.0 mg/kg/injection, schedule: Q01DX001 (ip), vehicle: saline with Tween-80): 90 % of control
- T/C (dose: 200.0 mg/kg/injection, schedule: Q01DX001 (oral), vehicle: saline with Tween-80): 102 % of control
- T/C (dose: 200.0 mg/kg/injection, schedule: Q01DX001 (sc), vehicle: saline with Tween-80): 97 % of control
- T/C [7]: 88 % of control
- T/C (dose: 200.0 mg/kg/injection, schedule: Q01DX009 (oral), vehicle: saline with Tween-80): 100 % of control
- T/C (dose: 200.0 mg/kg/injection, schedule: Q01DX009 (sc), vehicle: saline with Tween-80): 97 % of control
- T/C [8]: 93 % of control
- T/C [9]: 90 % of control
- T/C (dose: 200.0 mg/kg/injection, schedule: Q08DX002 (ip), vehicle: saline with Tween-80): 87 % of control
- T/C (dose: 270.0 mg/kg/injection, schedule: Q01DX005 (ip), vehicle: saline with Tween-80): 96 % of control
- T/C (dose: 270.0 mg/kg/injection, schedule: Q01DX009 (ip), vehicle: saline with Tween-80): 90 % of control
- T/C (dose: 400.0 mg/kg/injection, schedule: Q01DX001 (ip), vehicle: saline with Tween-80): 90 % of control
- T/C (dose: 400.0 mg/kg/injection, schedule: Q01DX001 (oral), vehicle: saline with Tween-80): 103 % of control
- T/C (dose: 400.0 mg/kg/injection, schedule: Q01DX001 (sc), vehicle: saline with Tween-80): 97 % of control
- T/C (dose: 400.0 mg/kg/injection, schedule: Q01DX009 (oral), vehicle: saline with Tween-80): 96 % of control
- T/C [10]: 93 % of control
- T/C (dose: 400.0 mg/kg/injection, schedule: Q08DX002 (ip), vehicle: saline with Tween-80): 90 % of control
- T/C (dose: 405.0 mg/kg/injection, schedule: Q01DX005 (ip), vehicle: saline with Tween-80): 93 % of control
- T/C (dose: 405.0 mg/kg/injection, schedule: Q01DX009 (ip), vehicle: saline with Tween-80): 92 % of control
- T/C (dose: 800.0 mg/kg/injection, schedule: Q01DX001 (ip), vehicle: saline with Tween-80): 88 % of control and 90 % of control
- T/C (dose: 800.0 mg/kg/injection, schedule: Q01DX001 (oral), vehicle: saline with Tween-80): 97 % of control
- T/C (dose: 800.0 mg/kg/injection, schedule: Q01DX001 (sc), vehicle: saline with Tween-80): 90 % of control

SMILES: c1ccc2[s+]cccc2c1
- T/C [6]: 95 % of control

SMILES: O=S(=O)(F)c1ccc2nc(-c3ccccc3)cc(Cl)c2c1
- T/C [11]: 111 % of control
- T/C [12]: 108 % of control
- T/C (dose: 400.0 mg/kg/injection, schedule: Q01DX009 (ip), vehicle: saline): 109 % of control

SMILES: Cc1cc(Cl)ccc1NC(=O)CCl
- T/C [4]: 93 % of control
- T/C [6]: 100 % of control
- T/C [7]: 88 % of control
- T/C [9]: 105 % of control
- T/C [13]: 96 % of control
- T/C (dose: 400.0 mg/kg/injection, schedule: Q04DX003 (ip), vehicle: saline with Tween-80): 92 % of control

SMILES: COc1cc(C(=O)C[n+]2ccccc2)ccc1O
- T/C [3]: 103 % of control
- T/C [4]: 87 % of control
- T/C [7]: 96 % of control

SMILES: C=C(Cl)CNC(N)=S
- T/C [6]: 99 % of control
- T/C [9]: 98 % of control

SMILES: NC1=NCN(C2OC(COC(=O)c3ccccc3)C(OC(=O)c3ccccc3)C2OC(=O)c2ccccc2)C(=O)N1 (centres undefined)
- T/C (dose: 3.12 mg/kg/injection, schedule: Q01DX009 (ip), vehicle: saline): 97 % of control and 108 % of control
- T/C (dose: 6.25 mg/kg/injection, schedule: Q01DX009 (ip), vehicle: saline): 91 % of control and 102 % of control
- T/C (dose: 12.5 mg/kg/injection, schedule: Q01DX009 (ip), vehicle: saline): 91 % of control and 100 % of control
- T/C (dose: 25.0 mg/kg/injection, schedule: Q01DX009 (ip), vehicle: saline): 94 % of control and 97 % of control
- T/C (dose: 50.0 mg/kg/injection, schedule: Q01DX009 (ip), vehicle: saline): 112 % of control and 100 % of control
- T/C [11]: 122 % of control and 108 % of control
- T/C [12]: 165 % of control

SMILES: C(=Nc1ccc2ccccc2c1)c1ccccc1
- T/C (dose: 50.0 mg/kg/injection, schedule: Q04DX002 (ip), vehicle: saline with Tween-80): 91 % of control
- T/C [5]: 95 % of control
- T/C [8]: 95 % of control
- T/C [10]: 98 % of control

SMILES: O=C(OCC1CC=CC1)C1CC=CC1
- T/C [1]: 104 % of control
- T/C [2]: 95 % of control
- T/C [3]: 98 % of control

SMILES: N#CCc1ccc(N=Nc2c(N)nc(N)[nH]c2=O)cc1
- T/C [4]: 99 % of control
- T/C [7]: 96 % of control
- T/C [13]: 87 % of control
